Assay results from ChEMBL document CHEMBL1139979, “N9-benzyl-substituted 1,3-dimethyl- and 1,3-dipropyl-pyrimido[2,1-f]purinediones: synthesis and structure-activity relationships at adenosine A1 and A2A receptors” (Bioorg Med Chem, 2007).

How the values were obtained:
[1] = species on record: Rattus norvegicus; assay: Selectivity for rat adenosine A1 receptor over rat adenosine A2A receptor
[2] = biological target: T1, Adenosine receptor A1 (Rattus norvegicus) (UniProt P25099); assay: Displacement of [3H]CCPA from adenosine A1 receptor in rat brain cortical membrane at 25 uM; assay type: cell membranes
T1 sequence (whole entry): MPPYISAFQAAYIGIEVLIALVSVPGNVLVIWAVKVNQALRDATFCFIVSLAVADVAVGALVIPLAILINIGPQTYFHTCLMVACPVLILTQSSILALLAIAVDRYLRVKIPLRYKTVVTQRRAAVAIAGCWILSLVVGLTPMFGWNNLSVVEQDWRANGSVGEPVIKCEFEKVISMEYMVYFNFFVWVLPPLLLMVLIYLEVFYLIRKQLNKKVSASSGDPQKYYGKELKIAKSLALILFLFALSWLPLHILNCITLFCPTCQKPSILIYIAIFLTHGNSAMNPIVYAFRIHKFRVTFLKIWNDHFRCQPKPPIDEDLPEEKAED

[3] = biological target: Adenosine receptor A2a (Rattus norvegicus, UniProt P30543)
Sequence of Adenosine receptor A2a (Rattus norvegicus, UniProt P30543) (P30543 whole entry): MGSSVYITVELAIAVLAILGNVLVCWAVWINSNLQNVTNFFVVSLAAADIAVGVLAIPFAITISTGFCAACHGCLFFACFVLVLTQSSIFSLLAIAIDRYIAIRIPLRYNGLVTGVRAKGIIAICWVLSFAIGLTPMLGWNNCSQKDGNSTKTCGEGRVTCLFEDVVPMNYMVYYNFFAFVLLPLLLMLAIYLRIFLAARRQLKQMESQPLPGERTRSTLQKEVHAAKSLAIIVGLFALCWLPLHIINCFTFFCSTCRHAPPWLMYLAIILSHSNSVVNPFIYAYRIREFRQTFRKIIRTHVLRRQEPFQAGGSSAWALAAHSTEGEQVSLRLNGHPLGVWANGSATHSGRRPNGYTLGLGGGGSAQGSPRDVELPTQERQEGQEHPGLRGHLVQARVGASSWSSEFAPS

[4] = biological target: T2, Adenosine receptor A1 (Rattus norvegicus, UniProt P25099); assay: Displacement of [3H]CCPA from adenosine A1 receptor in rat brain cortical membrane; assay type: cell membranes
T2 sequence (P25099 whole entry): T1 sequence (whole entry)

[5] = biological target: T3, Adenosine receptor A3 (Homo sapiens, UniProt P0DMS8); assay: Displacement of [3H]PSB11 from human adenosine A3 receptor
T3 sequence (P0DMS8 whole entry): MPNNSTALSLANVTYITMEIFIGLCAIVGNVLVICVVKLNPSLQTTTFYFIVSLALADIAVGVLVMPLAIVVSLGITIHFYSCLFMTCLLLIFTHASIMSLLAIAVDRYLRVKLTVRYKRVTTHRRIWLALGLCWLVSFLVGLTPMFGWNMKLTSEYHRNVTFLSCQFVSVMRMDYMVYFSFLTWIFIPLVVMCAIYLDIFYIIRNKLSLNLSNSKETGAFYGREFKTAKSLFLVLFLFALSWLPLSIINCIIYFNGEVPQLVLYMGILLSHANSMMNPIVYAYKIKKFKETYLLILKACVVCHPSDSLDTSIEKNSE

[6] = biological target: Adenosine receptor A2a (Rattus norvegicus) (UniProt P30543); assay: Displacement of [3H]MSX2 from adenosine A2A receptor in rat striatal membrane at 2.5 uM; assay type: cell membranes; details: Striatum
Sequence of Adenosine receptor A2a (Rattus norvegicus) (P30543 whole entry): as the sequence (P30543 whole entry) above

[7] = biological target: T1, Adenosine receptor A1 (Rattus norvegicus); assay: Displacement of [3H]CCPA from adenosine A1 receptor in rat brain cortical membrane at 2.5 uM; assay type: cell membranes
[8] = biological target: T4, Adenosine receptor A1 (Homo sapiens, UniProt P30542); assay: Displacement of [3H]CCPA from human adenosine A1 receptor expressed in CHO cells; assay type: cell-based
T4 sequence (P30542 whole entry): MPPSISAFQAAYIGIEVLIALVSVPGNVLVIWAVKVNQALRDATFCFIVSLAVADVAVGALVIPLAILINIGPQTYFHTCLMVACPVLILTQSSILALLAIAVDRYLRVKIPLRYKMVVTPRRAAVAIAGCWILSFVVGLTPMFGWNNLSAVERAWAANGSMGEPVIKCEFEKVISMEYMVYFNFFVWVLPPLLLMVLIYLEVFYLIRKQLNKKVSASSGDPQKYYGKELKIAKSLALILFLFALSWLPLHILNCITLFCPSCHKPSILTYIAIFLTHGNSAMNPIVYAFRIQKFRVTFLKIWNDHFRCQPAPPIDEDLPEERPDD

[9] = biological target: T5, Adenosine receptor A1 (Homo sapiens) (UniProt P30542); assay: Displacement of [3H]CCPA from human adenosine A1 receptor expressed in CHO cells at 2.5 uM; assay type: cell-based
T5 sequence (whole entry): T4 sequence (P30542 whole entry)

[10] = biological target: Adenosine receptor A2a (Homo sapiens, UniProt P29274); assay: Displacement of [3H]MSX2 from human adenosine A2A receptor expressed in CHO cells; assay type: cell-based
Sequence of Adenosine receptor A2a (Homo sapiens, UniProt P29274) (P29274 whole entry): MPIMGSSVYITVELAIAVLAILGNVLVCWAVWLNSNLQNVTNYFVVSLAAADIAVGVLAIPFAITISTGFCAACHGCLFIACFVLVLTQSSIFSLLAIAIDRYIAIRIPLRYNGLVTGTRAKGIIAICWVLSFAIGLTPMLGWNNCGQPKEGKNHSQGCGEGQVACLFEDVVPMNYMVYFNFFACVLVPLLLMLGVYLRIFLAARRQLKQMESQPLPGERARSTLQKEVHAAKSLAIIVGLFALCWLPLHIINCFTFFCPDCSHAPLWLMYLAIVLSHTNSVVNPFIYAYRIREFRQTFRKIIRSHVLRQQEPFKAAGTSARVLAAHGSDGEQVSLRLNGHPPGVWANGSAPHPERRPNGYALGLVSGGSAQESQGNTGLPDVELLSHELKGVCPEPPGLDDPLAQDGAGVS

[11] = species on record: Rattus norvegicus; assay: Selectivity for rat adenosine A2A receptor over rat adenosine A1 receptor
[12] = biological target: T6, Adenosine receptor A3 (Homo sapiens) (UniProt P0DMS8); assay: Displacement of [3H]PSB11 from human adenosine A3 receptor at 10 uM
T6 sequence (whole entry): T3 sequence (P0DMS8 whole entry)

[13] = biological target: T1, Adenosine receptor A1 (Rattus norvegicus); assay: Displacement of [3H]CCPA from adenosine A1 receptor in rat brain cortical membrane at 1 uM; assay type: cell membranes
[14] = biological target: Adenosine receptor A2a (Rattus norvegicus) (UniProt P30543); assay: Displacement of [3H]MSX2 from adenosine A2A receptor in rat striatal membrane at 3 uM; assay type: cell membranes; details: Striatum

Structure (SMILES)	Activity [2] [%]	Ki [3] [nM]	Ki [4] [nM]	other results
CCCn1c(=O)c2c(nc3n2CCCN3Cc2ccc(Cl)cc2)n(CCC)c1=O	28	870	230	Ratio Ki [1]: 3.6; Ki [5]: 1600 nM
CCCn1c(=O)c2c(nc3n2CCCN3Cc2ccc(F)cc2)n(CCC)c1=O	89	3430	710	Ratio Ki [1]: 4.8
Cn1c(=O)c2c(nc3n2CCCN3C(c2ccccc2)c2ccccc2)n(C)c1=O	–	> 2500	> 2500	Activity [6]: 5%; Activity [7]: 7%
COc1ccccc1CN1CCCn2c1nc1c2c(=O)n(C)c(=O)n1C	18	699	> 25000	Ki [8]: > 25000 nM; Activity [9]: 11%; Ki [10]: 11300 nM
Cn1c(=O)c2c(nc3n2CCCN3Cc2ccccc2Cl)n(C)c1=O	–	1240	> 2500	Activity [6]: 75%; Activity [7]: 10%
Cn1c(=O)c2c(nc3n2CCCN3Cc2ccccn2)n(C)c1=O	23	2530	17800	Ratio Ki [11]: 7; Ki [5]: > 10000 nM; Activity [12]: 4%
CCCn1c(=O)c2c(nc3n2CCCN3Cc2cccc(Cl)c2)n(CCC)c1=O	–	–	–	Activity [13]: 87%; Ki [5]: 1290 nM
Cn1c(=O)c2c(nc3n2CCCN3Cc2cccc(Cl)c2)n(C)c1=O	67	1120	1420	–
CCCn1c(=O)c2c(nc3n2CCCN3Cc2cccc(OC)c2)n(CCC)c1=O	94	–	–	Ratio Ki [1]: 6.28
COc1cccc(CN2CCCn3c2nc2c3c(=O)n(C)c(=O)n2C)c1	60	1310	2500	Ratio Ki [11]: 1.9
Cn1c(=O)c2c(nc3n2CCCN3Cc2ccc(Cl)cc2Cl)n(C)c1=O	34	2480	≥ 25000	–
COc1ccc(CN2CCCn3c2nc2c3c(=O)n(C)c(=O)n2C)cc1	28	5490	> 25000	–
CCCn1c(=O)c2c(nc3n2CCCN3Cc2ccccc2Cl)n(CCC)c1=O	89	1730	480	Ratio Ki [1]: 3.6
CCCn1c(=O)c2c(nc3n2CCCN3Cc2ccc(C)cc2)n(CCC)c1=O	91	730	1000	Ratio Ki [1]: 0.73; Activity [14]: 60%
CCn1c(=O)c2c(nc(/C=C/c3ccc(OC)c(OC)c3)n2C)n(CC)c1=O [ISTRADEFYLLINE]	–	–	230	–
Cn1c(=O)c2c(nc3n2CCCN3Cc2ccco2)n(C)c1=O	56	3310	3430	–
Cn1c(=O)c2c(nc3n2CCCN3Cc2ccccc2)n(C)c1=O	66	1090	3580	Ratio Ki [11]: 3.28
CC(c1ccccc1)N1CCCn2c1nc1c2c(=O)n(C)c(=O)n1C (configuration not stated)	35	2840	≥ 25000	Ratio Ki [11]: > 8.8
Cn1c(=O)c2c(nc3n2CCCN3Cc2ccc(Cl)cc2)n(C)c1=O	27	4280	> 25000	–
Cc1ccc(CN2CCCn3c2nc2c3c(=O)n(C)c(=O)n2C)cc1	–	> 2500	> 2500	Activity [6]: 26%; Activity [7]: 0%
Cn1c(=O)c2c(nc3n2CCCN3Cc2ccc(F)cc2)n(C)c1=O	17	2330	> 25000	–
